Measured values: PubChem BioAssay (NCI)
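Cells were grown in 96-well plates and exposed to each compound for 48 hours at five concentrations; endpoints were interpolated linearly between bracketing concentrations, or set to the highest concentration if not reached. GI50 is the concentration that inhibits growth by half. TGI: concentration producing complete growth inhibition.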

What was measured:
Experiment in all cases: DTP human tumour cell line panel, 48 h
SK-MEL-5 melanoma = tested on: SK-MEL-5 melanoma
OVCAR-5 ovarian = tested on: OVCAR-5 ovarian
NCI-H460 lung = tested on: NCI-H460 lung
SN12C renal = tested on: SN12C renal
786-0 renal = tested on: 786-0 renal
OVCAR-4 ovarian = tested on: OVCAR-4 ovarian
SF-539 CNS = tested on: SF-539 CNS
NCI/ADR-RES ovarian = tested on: NCI/ADR-RES ovarian
HL-60(TB) leukemia = tested on: HL-60(TB) leukemia
K-562 leukemia = tested on: K-562 leukemia
KM12 colon = tested on: KM12 colon
HCT-15 colon = tested on: HCT-15 colon
OVCAR-8 ovarian = tested on: OVCAR-8 ovarian
OVCAR-3 ovarian = tested on: OVCAR-3 ovarian
SK-MEL-2 melanoma = tested on: SK-MEL-2 melanoma
TK-10 renal = tested on: TK-10 renal
HOP-92 NSCLC = tested on: HOP-92 NSCLC
ACHN renal = tested on: ACHN renal
MDA-MB-231 breast = tested on: MDA-MB-231 breast
RPMI-8226 leukemia = tested on: RPMI-8226 leukemia
SK-MEL-28 melanoma = tested on: SK-MEL-28 melanoma
HCC-2998 colon = tested on: HCC-2998 colon
SF-268 CNS = tested on: SF-268 CNS
MCF7 breast = tested on: MCF7 breast
MDA-MB-435 = tested on: MDA-MB-435
DU-145 prostate = tested on: DU-145 prostate
UO-31 renal = tested on: UO-31 renal
COLO 205 colon = tested on: COLO 205 colon
UACC-257 melanoma = tested on: UACC-257 melanoma
HOP-62 NSCLC = tested on: HOP-62 NSCLC
LOX IMVI melanoma = tested on: LOX IMVI melanoma
A549 NSCLC = tested on: A549 NSCLC
CAKI-1 renal = tested on: CAKI-1 renal
MALME-3M melanoma = tested on: MALME-3M melanoma
SW-620 colon = tested on: SW-620 colon
RXF 393 renal = tested on: RXF 393 renal
EKVX NSCLC = tested on: EKVX NSCLC
HT29 colon = tested on: HT29 colon
T-47D breast = tested on: T-47D breast
U251 CNS = tested on: U251 CNS
BT-549 breast = tested on: BT-549 breast
HS 578T breast = tested on: HS 578T breast
PC-3 prostate = tested on: PC-3 prostate
NCI-H226 lung = tested on: NCI-H226 lung
HCT-116 colon = tested on: HCT-116 colon
IGROV1 ovarian = tested on: IGROV1 ovarian
NCI-H23 lung = tested on: NCI-H23 lung
SNB-75 CNS = tested on: SNB-75 CNS
SF-295 CNS = tested on: SF-295 CNS
CCRF-CEM leukemia = tested on: CCRF-CEM leukemia
M14 melanoma = tested on: M14 melanoma
SR leukemia = tested on: SR leukemia
SNB-19 CNS = tested on: SNB-19 CNS
SK-OV-3 ovarian = tested on: SK-OV-3 ovarian
NCI-H522 lung = tested on: NCI-H522 lung
A498 renal = tested on: A498 renal
UACC-62 melanoma = tested on: UACC-62 melanoma
MOLT-4 leukemia = tested on: MOLT-4 leukemia

## COc1cccc(CC(C)=C(c2ccc(OCCN(C)C)cc2)c2ccc(OCCN(C)C)cc2)c1
SK-MEL-5 melanoma
  GI50: 4.75 µM
  TGI: 9.26 µM
OVCAR-5 ovarian
  GI50: 3.24 µM
  TGI: 7.35 µM
NCI-H460 lung
  GI50: 2.83 µM
  TGI: 7.38 µM
SN12C renal
  GI50: 4.19 µM
  TGI: 8.69 µM
786-0 renal
  GI50: 0.606 µM
  TGI: 1.27 µM
OVCAR-4 ovarian
  GI50: 3.53 µM
  TGI: 8.16 µM
SF-539 CNS
  GI50: 0.589 µM
  TGI: 1.1 µM
NCI/ADR-RES ovarian
  GI50: 3.76 µM
  TGI: 8.32 µM
HL-60(TB) leukemia
  GI50: 0.667 µM
  TGI: 1.34 µM
K-562 leukemia
  GI50: 0.614 µM
  TGI: 1.77 µM
KM12 colon
  GI50: 4.08 µM
  TGI: 8.77 µM
HCT-15 colon
  GI50: 0.974 µM
  TGI: 3.6 µM
OVCAR-8 ovarian
  GI50: 2.04 µM
  TGI: 6.71 µM
OVCAR-3 ovarian
  GI50: 1.18 µM
  TGI: 3.42 µM
SK-MEL-2 melanoma
  GI50: 5.19 µM
  TGI: 10.9 µM
TK-10 renal
  GI50: 5.43 µM
  TGI: 10.3 µM
HOP-92 NSCLC
  GI50: 0.865 µM
  TGI: 4.48 µM
ACHN renal
  GI50: 1.04 µM
  TGI: 3.35 µM
MDA-MB-231 breast
  GI50: 1.1 µM
  TGI: 4.69 µM
RPMI-8226 leukemia
  GI50: 0.842 µM
  TGI: 2.24 µM
SK-MEL-28 melanoma
  GI50: 0.602 µM
  TGI: 1.1 µM
HCC-2998 colon
  GI50: 0.895 µM
  TGI: 4.92 µM
SF-268 CNS
  GI50: 4.03 µM
  TGI: 8.69 µM
MCF7 breast
  GI50: 0.926 µM
  TGI: 3.85 µM
MDA-MB-435
  GI50: 0.682 µM
  TGI: 1.37 µM
DU-145 prostate
  GI50: 3.86 µM
  TGI: 8.26 µM
UO-31 renal
  GI50: 3.55 µM
  TGI: 7.57 µM
COLO 205 colon
  GI50: 0.626 µM
  TGI: 1.31 µM
UACC-257 melanoma
  GI50: 4.06 µM
  TGI: 8.8 µM
HOP-62 NSCLC
  GI50: 2.24 µM
  TGI: 6.92 µM
LOX IMVI melanoma
  GI50: 0.604 µM
  TGI: 1.16 µM
A549 NSCLC
  GI50: 3.59 µM
  TGI: 8.25 µM
CAKI-1 renal
  GI50: 3.96 µM
  TGI: 8.27 µM
MALME-3M melanoma
  GI50: 0.564 µM
  TGI: 1.05 µM
SW-620 colon
  GI50: 0.735 µM
  TGI: 1.82 µM
RXF 393 renal
  GI50: 0.779 µM
  TGI: 4.44 µM
EKVX NSCLC
  GI50: 4.09 µM
  TGI: 8.52 µM
HT29 colon
  GI50: 0.706 µM
  TGI: 1.91 µM
T-47D breast
  GI50: 0.681 µM
  TGI: 1.77 µM
U251 CNS
  GI50: 0.903 µM
  TGI: 2.42 µM
BT-549 breast
  GI50: 4.29 µM
  TGI: 8.88 µM
HS 578T breast
  GI50: 3.58 µM
  TGI: 8.9 µM
PC-3 prostate
  GI50: 1.95 µM
  TGI: 6.82 µM
NCI-H226 lung
  GI50: 4.8 µM
  TGI: 10.4 µM
HCT-116 colon
  GI50: 0.644 µM
  TGI: 1.5 µM
IGROV1 ovarian
  GI50: 3.98 µM
  TGI: 8.73 µM
NCI-H23 lung
  GI50: 4.42 µM
  TGI: 9.24 µM
SNB-75 CNS
  GI50: 1.46 µM
  TGI: 6.28 µM
SF-295 CNS
  GI50: 4.07 µM
  TGI: 8.62 µM
CCRF-CEM leukemia
  GI50: 0.693 µM
  TGI: 2.23 µM
M14 melanoma
  GI50: 0.612 µM
  TGI: 1.2 µM
SR leukemia
  GI50: 0.787 µM
  TGI: 2.22 µM
SNB-19 CNS
  GI50: 4.38 µM
  TGI: 8.99 µM
SK-OV-3 ovarian
  GI50: 5.66 µM
  TGI: 10.4 µM
NCI-H522 lung
  GI50: 2.86 µM
  TGI: 7.95 µM
A498 renal
  GI50: 4.79 µM
  TGI: 9.63 µM
UACC-62 melanoma
  GI50: 0.689 µM
  TGI: 1.5 µM
MOLT-4 leukemia
  GI50: 0.834 µM
  TGI: 2.39 µM
